In series [1] the target is T1, cathepsin B (Homo sapiens, UniProt P07858).
T1 construct: made in house; host or cells: E. coli BL21(DE3)pLysS
Kind of series: Cleavage of substrate peptides by cathepsin B, fragment analysis by LC-MS. It counts as biochemical. Conditions: 3 hours at 37° C., pH 5.5, LC-MS fragment analysis. As to the method:
(§1) Each peptide (1 nmole) was treated with […] cathepsin B or cathepsin L (generated by transformation of E. coli BL21(DE3)pLysS strain with the pET3a/procathepsin B or procathepsin L vectors) or acetate buffer vehicle (50 mM acetate, 5 mM MgCl2, 2 mM DTT, adjusted to pH 5.5) for 3 hours at 37° C. Next, enzymes were precipitated by an hour incubation at −80° C. in 80% cold methanol followed by 10 minutes of 6000 g centrifugation at 4° C. Supernatant volume was reduced to about 15 μl under vacuum, adjusted to a final volume of 30 μl with methanol and analyzed by LCMS equipped with C18 reverse phase.

In another series the target is T2, cathepsin L (Homo sapiens, UniProt P07711).
T2 construct: made in house; host or cells: E. coli BL21(DE3)pLysS
T2 sequence (P07711 18-333 limits assumed): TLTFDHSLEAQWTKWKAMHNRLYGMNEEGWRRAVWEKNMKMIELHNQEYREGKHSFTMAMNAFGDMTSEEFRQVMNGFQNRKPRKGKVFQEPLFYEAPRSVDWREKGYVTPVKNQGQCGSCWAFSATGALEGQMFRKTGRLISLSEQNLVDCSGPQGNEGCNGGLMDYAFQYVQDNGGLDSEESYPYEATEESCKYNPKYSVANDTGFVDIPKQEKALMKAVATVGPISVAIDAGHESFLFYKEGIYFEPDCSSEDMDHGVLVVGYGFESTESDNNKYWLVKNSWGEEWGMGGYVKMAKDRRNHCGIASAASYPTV
Kind of series: Cleavage of substrate peptides by cathepsin L, fragment analysis by LC-MS. It counts as biochemical. Conditions: 3 hours at 37° C., pH 5.5, LC-MS fragment analysis. As to the method:
as §1

Series [2] in a line: Self-assembly of TPSs into nanofibers, electron microscopy (TEM/SEM). The format is physicochemical. The conditions noted are these: for self-assembly into ordered nanofibers / Diameter of TPS nanofibers: TEM; for self-assembly into ordered nanofibers: 5 mg/ml (1 mg/ml TPS8, TPS9); for Diameter of TPS nanofibers: solvent switching DMSO to water. As to the method:
Lyophilized peptides were dissolved in DMSO to a concentration of 100 mg/ml and then diluted in DDW to the indicated final concentration.
Transmission electron microscopy (TEM) analysis was performed by applying 10 μl of samples to a 200 or 400-mesh copper grids covered by carbon-stabilized Formvar film (SPI, West Chester, Pa.). The samples were allowed to adsorb for 2 minutes before excess fluid was blotted off. Samples were negatively stained by depositing 10 μl of 2% uranyl acetate on the grid and allowing it to adsorb for 2 minutes before excess fluid was blotted off. Except the sample in FIG. 9E, all samples were negatively stained. TEM micrographs were recorded using a JEOL 1200EX or JEOL JEM-1400Plus electron microscope operating at different kV.
Scanning Electron Microscopy (SEM) samples were prepared as described above for TEM on a 400-mesh copper grids, without uranyl acetate staining, and viewed using FBI Magellan™ 400L system.

Series [3] can be described thus: Kinetics of TPS4 self-assembly by turbidity. The format is physicochemical. Conditions: 0.5, 1 or 2 mg/ml, 37° C., first 5 hours. As to the method:
Freshly prepared aliquots of 0.5, 1 or 2 mg/ml of TPS4 were placed in triplicates in a 96-well plate, 100 ul/well. Plate was placed at 37° C. in a Biotek Cytation 3 plate reader (Winooski, Vt., USA) and absorbance at 350 nm was measured every 2 minutes during 5 hours.

Series [4] deals with T1, cathepsin B. Briefly: Turbidity analysis of TPS4 nanofiber degradation by cathepsin B. It counts as biochemical. Conditions: 0.5, 1 and 2 mg/ml TPS4, 37° C. As to the method: Turbidity analysis for TPS4 solutions was conducted using triplicates of freshly prepared solutions as described above in a 96 well plate. Aliquots of 1, 2 or 4 mg/ml were allowed to assemble for 4-5 hours at room temperature. Next, 0.064, 0.128 or 0.255 μM of cathepsin B or acetate buffer vehicle were added, diluting the samples to 0.5, 1, and 2 mg/ml, respectively. The plate was placed at 37° C. in a Biotek Synergy HT plate reader (Winooski, Vt., USA) and absorbance was measured for 12 hours as described above. After 24 hours since enzyme addition, a color picture was taken and the turbidity was measured again.

Another series concerns MDA-MB 231 cells. Briefly: TPS4 nanofibers cytotoxicity, methylene blue assay. The format is cell-based, human. The conditions noted are these: 0.5 mg/ml nanofibers, 24 or 48 hours. As to the method:
MDA-MB 231 human breast adenocarcinoma cells were cultured in Dulbecco's modified eagle's medium (DMEM) supplemented with 10% fetal bovine serum (FBS), 1% penicillin and 1% streptomycin in a humidified atmosphere of 5% CO2 at 37° C. One day prior to treatment MDA-MB 231 cells (7×10^3 cells/well) were cultured in a 96-well plate. The media of TPS4 that was assembled in DMEM was removed by centrifugation (14,000 rpm, 4° C.) and the nanofibers were resuspended in DMEM supplemented with 10% […], 1% penicillin and 1% streptomycin. Cells in triplicates were incubated with 0.5 mg/ml of TPS4 nanofibers (final concentration of 0.1% DMSO was kept constant) in growth medium at 37° C. After 24 or 48 hours of treatment, cell survival was determined by standard methylene blue assay.

For a further series, the system named is 4T1 tumor lysates. Briefly: Nanofibers degradation by 4T1 tumor lysates. The format is biochemical, mice. As to the method: (§2) Tissue lysates were prepared as previously described. Assembly of TPS4 in triplicates was performed for 4 hours in acetate buffer as described in FIG. 6B. Next, 100 μg of lysates from 4T1 tumor or muscles, or RIPA vehicle control (1% Tergitol-type NP-40 (nonyl phenoxypolyethoxylethanol), 0.1% SDS, 0.5% sodium deoxycholate) were added in acetate buffer. The absorbance was read at 350 nm after gentle shaking at 37° C. for indicated times using a BioTek plate reader.

In series [5] the test system is lysates from mice muscles. Kind of series: Nanofibers degradation by mice muscle lysates. It counts as biochemical. Conditions: 0.5 mg/ml TPS4, mice muscle lysates, first ten hours. As to the method:
as §2

Entries after “also recorded” stand apart in the source; their conditions may differ. Where a SMILES comes first, the peptide text is derived from it. The star is where a group is joined. Fmoc = O=C(OCC1c2ccccc2-c2ccccc21)*; Cbz = O=C(OCc1ccccc1)*

For the compound Ac-FFKF-amide [TPS7], the “Number of amino acids removed from each TPS after cathepsin treatment, Cat B” value (from here on “Number of amino acids removed … Cat B”) on cathepsin B [1] was 1. For the same compound, on cathepsin L, the “Number of amino acids removed from each TPS after cathepsin treatment, Cat L” value (“Number of amino acids removed … Cat L” below) is 2. The “self-assembly into ordered nanofibers” value in series [2] is “excluding”.

As to `NCCCC[C@H](NC(=O)[C@H](Cc1ccccc1)NC(=O)[C@H](Cc1ccccc1)NC(=O)OCc1ccccc1)C(=O)N[C@@H](Cc1ccccc1)C(=O)O` [TPS4, Cbz-FFKF-OH] (Cbz-FFKF-OH), the “Number of amino acids removed … Cat B” value on cathepsin B [1] is listed as 2. Further, the “Number of amino acids removed … Cat L” value at cathepsin L was found to be 2. Also, in series [2], the “Diameter of TPS nanofibers” value came to 24 ± 6 nm. For the same compound, the “time to form fibers upon assembly initiation” value in series [2] (microscopic examination (data not shown)) is recorded as “instantly formed fibers”. In series [3], the “increase in turbidity (absorbance at 350 nm) during self-assembly” value was “up to 2.8±0.6 folds”. For the same compound, the “degradation of assembled nanofibers by cathepsin B (turbidity at 350 nm)” value at cathepsin B [4] was “significant and robust degradation”. In addition, in the series on MDA-MB 231 cells, the “cytotoxicity / growth inhibition” value is listed as “no growth inhibition; also recorded: no cytotoxicity”. Besides, the “nanofiber degradation over time” value is “degraded the majority of TPS4 nanofibers within two hours” with 4T1 tumor lysates (0.5 mg/ml TPS4, 4T1 tumor lysates, turbidity at 350 nm) and “limited effect” in series [5]. In the series with 4T1 tumor lysates (overnight lysate treatment, all concentrations tested), the “remaining nanofibers relative to vehicle (absorbance at 350 nm)” value is “less than 20%”. Besides, the “nanofiber degradation at the lowest concentration” value in the series with 4T1 tumor lysates (overnight lysate treatment, lowest TPS4 concentration) is reported as “full degradation”.

As for NH2-FFKF-OH (H-FFKF-OH) [TPS1], the “Number of amino acids removed … Cat B” value with cathepsin B [1] turned out to be 1. In addition, the “Number of amino acids removed … Cat L” value with cathepsin L turned out to be 2. For the same compound, the “Diameter of TPS nanofibers” value in series [2] was found to be 310 ± 80 nm.

Turning to “Fmoc-FFKF-OH (SMILES NCCCC[C@H](NC(=O)[C@H](Cc1ccccc1)NC(=O)[C@H](Cc1ccccc1)NC(=O)OCC1c2ccccc2-c2ccccc21)C(=O)N[C@@H](Cc1ccccc1)C(=O)O) [TPS3]”, the “Number of amino acids removed … Cat L” value in the series with cathepsin L is listed as 2. In series [2], the “Diameter of TPS nanofibers” value was determined as 14 ± 2 nm.

On to Cbz-FFKF-NH2 [TPS8], for which, on cathepsin L, the “Number of amino acids removed … Cat L” value was 2. The “Diameter of TPS nanofibers” value in series [2] was 30 ± 6 nm.

With Fmoc-Phe-Lys-Phe-NH2 [TPS5], the “Number of amino acids removed … Cat B” value at cathepsin B [1] amounted to 1. Further, the “Number of amino acids removed … Cat L” value on cathepsin L came out at 1. Moreover, the “Diameter of TPS nanofibers” value in series [2] turned out to be 66 ± 13 nm.

In the case of Ac-FFKF-OH [TPS2], the “Number of amino acids removed … Cat B” value with cathepsin B [1] amounted to 2. In addition, the “Number of amino acids removed … Cat L” value with cathepsin L is listed as 2. Further, in series [2], the “Diameter of TPS nanofibers” value was 12 ± 1 nm.

As to Fmoc-FFKF-NH2 [TPS9], in series [2], the “Diameter of TPS nanofibers” value worked out at 13 ± 4 nm.

For NH2-FFKF-amide [TPS6], the “Number of amino acids removed … Cat B” value on cathepsin B [1] is 1. In addition, the “Number of amino acids removed … Cat L” value at cathepsin L turned out to be 2. Also, the “self-assembly into ordered nanofibers” value in series [2] is “excluding”.

The values above are taken from patent publication US20190054035A1, “SELF-ASSEMBLED PEPTIDE NANOFIBERS AND USE THEREOF FOR TARGETED DRUG DELIVERY” (Yissum Research Development Company of the Hebrew …, priority 2017, published 2019).
